Source: patent US8980793B2, “Phytosanitary formulations” (Centre National de la Recherche Scientifique (CNRS), priority 2007, dated 2015)

Tests used:
[1] = Tests in darkness on wax films (penetration and volatilisation); assay type: physicochemical; details: wax film
From the text: The methodology for conducting the tests on thin films of cuticular wax comprises the following steps: • Preparation of the wax film: the wax which is used is the commercial carnauba wax. • Adding the pesticide. On the one hand, the active ingredient, sulcotrione, and on the other hand, the commercial formulation, Mikado®(alone or with the adding of at least one extract of at least one tinctorial plant, is deposited under the form of an aqueous solution on the surface of the leaves. The amount of active ingredient deposited by surface unit is equivalent to the amount used in agriculture. The studies are conducted after evaporation of the water. • Recovering of the pesticide. The films are rinsed with water and analysed by HPLC. It has been checked that the step of recovering is quantitative. • Tests in darkness. The concentration of the active ingredients on the surface of the leaves in darkness is controlled in order to measure the penetration rate of the active ingredient in the films and its volatilisation. […] Irradiation tests are conducted in a Suntest reactor simulating solar rays in temperate countries.

[2] = Photodegradation of sulcotrione on carnauba wax films irradiated in a Suntest reactor, HPLC analysis; assay type: physicochemical; details: wax film, 6 hours irradiation
From the text: The methodology for conducting the tests on thin films of cuticular wax comprises the following steps: • Preparation of the wax film: the wax which is used is the commercial carnauba wax. • Adding the pesticide. On the one hand, the active ingredient, sulcotrione, and on the other hand, the commercial formulation, Mikado®(alone or with the adding of at least one extract of at least one tinctorial plant, is deposited under the form of an aqueous solution on the surface of the leaves. The amount of active ingredient deposited by surface unit is equivalent to the amount used in agriculture. The studies are conducted after evaporation of the water. • Recovering of the pesticide. The films are rinsed with water and analysed by HPLC. It has been checked that the step of recovering is quantitative. • Tests in darkness. The concentration of the active ingredients on the surface of the leaves in darkness is controlled in order to measure the penetration rate of the active ingredient in the films and its volatilisation. […]
The photoprotective effects of the extracts according to the invention have been evaluated as follows The surface concentration of the active ingredient (sulcotrione) on the wax films is of 0.76 10^−5 g/cm^2, the active ingredient being used either pure or under the form of a commercial formulation. […]

[3] = cited from earlier work
[4] = Mikado spread on maize plants planted in a field, leaf surface checked by HPLC; details: spread as Mikado
From the text: For this aim, the commercial formulation, Mikado®, has been spread on maize plants planted in a field.
The amount of sulcotrione and the formation of a by-product of the phototransformation on the surface of the leaves have been checked by HPLC.

**Q.** With CS(=O)(=O)c1ccc(C(=O)C2C(=O)CCCC2=O)c(Cl)c1 [sulcotrione] as the molecule, how does the “penetration of the active ingredient into the films” value [1] read?
**A.** penetrates slowly into the films

**Q.** And the “volatilisation of the active ingredient” value [1]?
**A.** very little active ingredients volatilize

**Q.** And the “Weight percentage of remaining active ingredient after 6 hours of UV exposure” value [2]?
**A.** 5-10%

**Q.** And the half-life in water [3]?
**A.** about 80 days

**Q.** And the “detection of sulcotrione on the surface of the leaves” value ([4]; maize plants in a field, after 24 hours)?
**A.** no longer detected

**Q.** What about the sulcotrione transformed ([4]; surface of maize leaves in a field, after one hour) of the same molecule?
**A.** 25%
